Here are results for two molecules from patent publication US20240199624A1, “COMPOUNDS, COMPOSITIONS, AND METHODS” (CHDI Foundation, Inc., priority 2022, published 2024).

The target of this assay is T1, human MutSbeta (Homo sapiens, UniProt P20585+P43246).
T1 construct: Msh2(1-934), Gene ID NP_000242.1; Msh3(1-1137), Gene ID J04810.1
The assay is described as follows: ADP Glo assay 1.1. Format: biochemical. The conditions noted are these: SPA buffer, no Ovalbumin; enzyme added to compounds before ATP; read-out: ADP Gol 1.1 assay IC50. How it is done:
ADP Glo assay 2.1: Enzyme human MutSbeta (Msh2(1-934), Gene ID NP_000242.1, Msh3(1-1137), Gene ID J04810.1) with 22 bp biotin-labeled DNA containing a GT-mismatch (purchased from Curia Global, TOP 5′-[…]-3′; BOT 3′-AGTAGCTAGGC - - - CGAAGTCTACC-5′-Biotin) was pre-incubated in assay buffer (25 mM HEPES pH=7.5, 150 mM KCl, 5 mM MgCl2, 5 mM GSH, 0.1% Pluronic F-127, 0.2% Ovalbumin) to allow formation of the enzyme-DNA complex. Plates with spotted compounds in serial dilutions in DMSO (80 nL) were filled with ATP (2 μL, 10 μM final concentration) followed by an incubation of 30 min at RT. Then, enzyme was added (2 μL, 7 nM final concentration) and the reaction was allowed to proceed for 60 min at 37° C. After the ATPase reaction, the commercially available “ADP-Glo Reagent” was added (incubate 40 min at RT) to deplete remaining ATP via the activity of […]. Subsequently, the commercially available “Kinase Detection Reagent” converted ADP to ATP via the activity of PEP and Pyruvate kinase. The ATP was then converted into light by Ultra-Glo Luciferase. The obtained luminescence was proportional to the ADP concentration generated during the initial ATPase reaction. The luminescence signal was measured with an Envision reader, raw data were analyzed towards controls (full reaction=0% inhibition; no reaction in absence of enzyme=100% inhibition) and IC50 curves were analyzed with the inhouse software Aplus.
ADP Glo assay 1.1: The ADP Glo 2.1 assay was adapted to enable assessment of a more direct interaction of the compound with the enzyme: (1) the SPA buffer was applied (25 mM HEPES pH=7.5, 150 mM KCl, 2 mM MgCl2, 2 mM GSH, 0.01% Tween-20) which contained no decoy Ovalbumin protein. (2) The order of reagent addition was changed, and enzyme was now added directly to the spotted compounds before addition of ATP.
In general terms: ADP-Glo first removes unused ATP, then detects ADP through luciferase.

T1 sequence (P43246 whole entry): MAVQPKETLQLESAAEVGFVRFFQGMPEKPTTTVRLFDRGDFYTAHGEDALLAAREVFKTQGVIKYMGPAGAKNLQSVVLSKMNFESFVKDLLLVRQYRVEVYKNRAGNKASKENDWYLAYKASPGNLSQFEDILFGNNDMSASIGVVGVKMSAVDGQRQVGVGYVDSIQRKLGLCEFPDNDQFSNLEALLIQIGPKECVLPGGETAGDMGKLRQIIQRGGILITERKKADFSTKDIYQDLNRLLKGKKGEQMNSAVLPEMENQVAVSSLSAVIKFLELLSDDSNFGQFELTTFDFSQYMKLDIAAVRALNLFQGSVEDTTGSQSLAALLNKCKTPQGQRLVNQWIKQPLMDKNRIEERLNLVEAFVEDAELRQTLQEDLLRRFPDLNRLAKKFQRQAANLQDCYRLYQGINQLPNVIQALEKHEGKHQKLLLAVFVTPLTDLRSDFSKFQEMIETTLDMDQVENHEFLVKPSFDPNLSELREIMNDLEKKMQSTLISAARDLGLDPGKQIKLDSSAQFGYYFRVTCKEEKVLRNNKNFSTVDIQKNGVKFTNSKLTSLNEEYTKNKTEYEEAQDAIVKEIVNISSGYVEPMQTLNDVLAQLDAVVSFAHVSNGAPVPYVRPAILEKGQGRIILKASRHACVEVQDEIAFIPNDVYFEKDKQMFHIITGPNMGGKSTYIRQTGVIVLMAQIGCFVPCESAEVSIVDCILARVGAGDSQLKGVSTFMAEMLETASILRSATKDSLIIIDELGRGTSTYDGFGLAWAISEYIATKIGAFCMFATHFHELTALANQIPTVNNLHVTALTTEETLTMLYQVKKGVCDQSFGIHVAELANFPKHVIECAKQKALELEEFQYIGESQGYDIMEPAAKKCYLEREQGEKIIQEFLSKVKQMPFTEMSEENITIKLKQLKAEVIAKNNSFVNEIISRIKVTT
T1 sequence (P20585 whole entry): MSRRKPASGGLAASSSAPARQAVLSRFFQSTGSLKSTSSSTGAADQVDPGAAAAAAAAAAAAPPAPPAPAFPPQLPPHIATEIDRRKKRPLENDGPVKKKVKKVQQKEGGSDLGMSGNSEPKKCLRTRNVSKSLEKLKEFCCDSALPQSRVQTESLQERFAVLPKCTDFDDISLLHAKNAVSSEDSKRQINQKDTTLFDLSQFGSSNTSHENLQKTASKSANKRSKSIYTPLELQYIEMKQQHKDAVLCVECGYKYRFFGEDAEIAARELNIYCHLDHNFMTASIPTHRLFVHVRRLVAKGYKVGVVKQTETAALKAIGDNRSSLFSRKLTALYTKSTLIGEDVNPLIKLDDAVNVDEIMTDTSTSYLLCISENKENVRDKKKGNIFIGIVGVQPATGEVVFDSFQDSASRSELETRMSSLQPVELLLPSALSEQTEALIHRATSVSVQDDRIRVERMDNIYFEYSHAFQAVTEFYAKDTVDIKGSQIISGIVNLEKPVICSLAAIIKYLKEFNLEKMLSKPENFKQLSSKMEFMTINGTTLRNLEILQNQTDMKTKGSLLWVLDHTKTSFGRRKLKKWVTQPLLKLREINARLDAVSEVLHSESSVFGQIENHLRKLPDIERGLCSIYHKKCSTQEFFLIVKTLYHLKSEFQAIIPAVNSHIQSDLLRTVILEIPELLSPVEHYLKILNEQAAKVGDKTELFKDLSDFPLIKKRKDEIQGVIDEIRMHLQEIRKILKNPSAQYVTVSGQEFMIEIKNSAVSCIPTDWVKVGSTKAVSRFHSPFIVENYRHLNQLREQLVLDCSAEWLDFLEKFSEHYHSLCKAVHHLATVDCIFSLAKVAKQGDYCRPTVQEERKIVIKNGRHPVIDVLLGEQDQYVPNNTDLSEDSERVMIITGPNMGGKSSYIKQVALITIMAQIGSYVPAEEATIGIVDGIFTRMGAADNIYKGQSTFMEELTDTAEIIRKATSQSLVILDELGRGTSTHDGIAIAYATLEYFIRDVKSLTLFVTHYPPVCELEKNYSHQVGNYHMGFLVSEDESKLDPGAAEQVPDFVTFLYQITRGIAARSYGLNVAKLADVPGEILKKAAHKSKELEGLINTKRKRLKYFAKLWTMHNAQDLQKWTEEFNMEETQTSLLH

As for `CCN1CCN(c2nc(Nc3ccc(Cl)cc3)c3nccnc3n2)CC1` [Compound 4, N-(4-Chlorophenyl)-2-(4-ethylpiperazin-1-yl)pteridin-4-amine], the IC50 – broadly, the concentration needed to halve the response being measured – was determined as 64.3 µM. The value for `Cc1ccc(Nc2nc(N3CCN(C)CC3)nc3nccnc23)cc1C` [Compound 2, N-(3,4-dimethylphenyl)-2-(4-methylpiperazin-1-yl)pteridin-4-amine] was 54.8 µM.
